Where two headings read alike, the source gives them in different places.
Assays:
[1] = molecular target: T1, human BRD4 bromodomain II (Homo sapiens, UniProt O60885); assay: Bromodomain binding assay (AlphaScreen), BRD4 BDII
T1 construct: human BRD4 bromodomain II [based on Genbank NM_058243, residues 349-460]; host or cells: E. coli
Outline: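 AlphaScreen competition with biotinylated H4 peptide (aa 1-21, K5/K8/K12/K16Ac), using nickel-chelate acceptor and streptavidin donor beads. Targets were His6-BRD4 BDI (44-170) or BDII (349-460), with a 30 min compound preincubation over a 10-point 3-fold series. IC50 was fitted from percentage peptide binding.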

[2] = tested on: human SKM-1 acute myeloid leukemia cells; assay: SKM-1 antiproliferation cell-based assay (ATPlite); details: Homo sapiens
Outline: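 Log-phase cells in RPMI 1640/15% FBS were seeded at 34722 cells/mL and exposed for 4 days to nine-concentration DMSO serial dilutions in triplicate. Viability was read as ATP luminescence (ATPlite 1step), and IC50 values came from variable-slope non-linear regression.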

[3] = AlphaScreen assay, Table C2, read-out: BRD4 BDII IC50
[4] = SKM-1, 96 h, SKM-1 antiproliferation assay, 4 days, Table C2
[5] = BRD4 BDII AlphaScreen assay, read-out: BRD4 BD2 IC50
[6] = SKM-1, SKM-1 antiproliferation assay

SMILES	IC50 [1, 3] [nM]	GI50 [2, 4] [nM]	IC50 [1, 5] [nM]	GI50 [2, 6] [nM]
Cn1ccn(-c2ccc(-c3cc(F)cc(-c4cnnc(N5CC[C@](C)(O)C5)c4)c3O)cc2Cl)c1=O [Example 837, (S)-1-(3-chloro-5′-fluoro-2′-hydroxy-3′-(6-(3-hydroxy-3-methylpyrrolidin-1-yl)pyridazin-4-yl)-[1,1′-biphenyl]-4-yl)-3-methyl-1H-imidazol-2(3H)-one]	0.01 to 1	30 to 300		
COc1ncc(-c2cc(F)cc(-c3ccc(-n4ccn(C)c4=O)c(Cl)c3)c2O)cc1N1CC(O)(CO)C1 [Example 838, 1-(3-chloro-5′-fluoro-2′-hydroxy-3′-(5-(3-hydroxy-3-(hydroxymethyl)azetidin-1-yl)-6-methoxypyridin-3-yl)-[1,1′-biphenyl]-4-yl)-3-methyl-1H-imidazol-2(3H)-one]	0.01 to 1	30 to 300		
Cc1ncc(-c2cc(F)cc(-c3ccc(-n4ccn(C)c4=O)c(Cl)c3)c2O)cc1N1CC(O)(CO)C1 [Example 839, 1-(3-chloro-5′-fluoro-2′-hydroxy-3′-(5-(3-hydroxy-3-(hydroxymethyl)azetidin-1-yl)-6-methylpyridin-3-yl)-[1,1′-biphenyl]-4-yl)-3-methyl-1H-imidazol-2(3H)-one]	0.01 to 1	0.3 to 30		
Cn1ccn(-c2ccc(-c3cc(F)cc(-c4ccnc(N5CCCN(C(C)(C)C)CC5)c4)c3O)cc2Cl)c1=O [Example 840, 1-(3′-(2-(4-(tert-butyl)-1,4-diazepan-1-yl)pyridin-4-yl)-3-chloro-5′-fluoro-2′-hydroxy-[1,1′-biphenyl]-4-yl)-3-methyl-1H-imidazol-2(3H)-one]	0.01 to 1	0.3 to 30		
Cc1ccc(-c2cc(F)cc(-c3ccc(-n4ccn(C)c4=O)c(Cl)c3)c2O)cc1N1CC(O)(CO)C1 [Example 841, 1-(3-chloro-5′-fluoro-2′-hydroxy-3″-(3-hydroxy-3-(hydroxymethyl)azetidin-1-yl)-4″-methyl-[1,1′:3′,1″-terphenyl]-4-yl)-3-methyl-1H-imidazol-2(3H)-one]	1 to 10	30 to 300		
Cn1ccn(-c2ccc(-c3cc(F)cc(-c4ccc(Cl)c(N5CC[C@@](C)(O)C5)c4)c3O)cc2Cl)c1=O [Example 842, (R)-1-(3,4″-dichloro-5′-fluoro-2′-hydroxy-3″-(3-hydroxy-3-methylpyrrolidin-1-yl)-[1,1′:3′,1″-terphenyl]-4-yl)-3-methyl-1H-imidazol-2(3H)-one]	1 to 10	30 to 300		
Cc1ncc(-c2cc(F)cc(-c3ccc(-n4ccn(C)c4=O)c(Cl)c3)c2O)cc1N1CC(C)(O)C1 [Example 843, 1-(3-chloro-5′-fluoro-2′-hydroxy-3′-(5-(3-hydroxy-3-methylazetidin-1-yl)-6-methylpyridin-3-yl)-[1,1′-biphenyl]-4-yl)-3-methyl-1H-imidazol-2(3H)-one]	0.01 to 1	0.3 to 30		
Cc1ncc(-c2cc(F)cc(-c3ccc(-n4ccn(C)c4=O)c(Cl)c3)c2O)cc1N1CCCN(C(C)(C)C)CC1 [Example 844, 1-(3′-(5-(4-(tert-butyl)-1,4-diazepan-1-yl)-6-methylpyridin-3-yl)-3-chloro-5′-fluoro-2′-hydroxy-[1,1′-biphenyl]-4-yl)-3-methyl-1H-imidazol-2(3H)-one]	1 to 10	0.3 to 30		
Cc1ccc(-c2cc(F)cc(-c3ccc(-n4ccn(C)c4=O)c(Cl)c3)c2O)cc1N1CC(C)(O)C1 [Example 845, 1-(3-chloro-5′-fluoro-2′-hydroxy-3″-(3-hydroxy-3-methylazetidin-1-yl)-4″-methyl-[1,1′:3′,1″-terphenyl]-4-yl)-3-methyl-1H-imidazol-2(3H)-one]	1 to 10	30 to 300		
CC(C)N1C2CCC1CN(c1cccc(-c3cc(F)cc(-c4ccc(-n5ccn(C)c5=O)c(Cl)c4)c3O)c1)C2 [Example 846, 1-(3-chloro-5′-fluoro-2′-hydroxy-338-(8-isopropyl-3,8-diazabicyclo[3.2.1]octan-3-yl)-[1,1′:3′,1″-terphenyl]-4-yl)-3-methyl-1H-imidazol-2(3H)-one]	0.01 to 1	0.3 to 30		
COc1ncc(-c2cc(F)cc(-c3ccc(-n4ccn(C)c4=O)c(Cl)c3)c2O)cc1N1CCN(C(C)(C)C2CC2)CC1 [Example 847, 1-(3-chloro-3′-(5-(4-(2-cyclopropylpropan-2-yl)piperazin-1-yl)-6-methoxypyridin-3-yl)-5′-fluoro-2′-hydroxy-[1,1′-biphenyl]-4-yl)-3-methyl-1H-imidazol-2(3H)-one]	1 to 10	0.3 to 30		
CCc1ncc(-c2cc(F)cc(-c3ccc(-n4ccn(C)c4=O)c(Cl)c3)c2O)cc1N1CCN(C(C)(C)C)CC1 [Example 848, 1-(3′-(5-(4-(tert-butyl)piperazin-1-yl)-6-ethylpyridin-3-yl)-3-chloro-5′-fluoro-2′-hydroxy-[1,1′-biphenyl]-4-yl)-3-methyl-1H-imidazol-2(3H)-one]	10 to 100	0.3 to 30		
Cn1ccn(-c2ccc(-c3cc(F)cc(-c4cnc(C5CC5)c(N5CC(C)(O)C6(CC6)C5)c4)c3O)cc2Cl)c1=O (centres unmarked) [Example 849, 1-(3-Chloro-3′-(6-cyclopropyl-5-(7-hydroxy-7-methyl-5-azaspiro[2.4]heptan-5-yl)pyridin-3-yl)-5′-fluoro-2′-hydroxy-[1,1′-biphenyl]-4-yl)-3-methyl-1H-imidazol-2(3H)-one]			0.01 to 1	30 to 300
COCC(C)(C)N1CCN(c2cc(-c3cc(F)cc(-c4ccc(-n5ccn(C)c5=O)c(Cl)c4)c3O)cnc2OC)CC1 [Example 850, 1-(3-Chloro-5′-fluoro-2′-hydroxy-3′-(6-methoxy-5-(4-(1-methoxy-2-methylpropan-2-yl)piperazin-1-yl)pyridin-3-yl)-[1,1′-biphenyl]-4-yl)-3-methyl-1H-imidazol-2(3H)-one]			1 to 10	0.3 to 30
Cn1ccn(-c2ccc(-c3cc(F)cc(-c4cccc(N5CCCN(C(C)(C)C)CC5)c4)c3O)cc2Cl)c1=O [Example 851, 1-(3″-(4-(tert-Butyl)-1,4-diazepan-1-yl)-3-chloro-5′-fluoro-2′-hydroxy-[1,1′:3′,1″-terphenyl]-4-yl)-3-methyl-1H-imidazol-2(3H)-one]			1 to 10	30 to 300
CCc1ncc(-c2cc(F)cc(-c3ccc(-n4ccn(C)c4=O)c(Cl)c3)c2O)cc1N1CC[C@@](C)(O)C1 [Example 852, (R)-1-(3-Chloro-3′-(6-ethyl-5-(3-hydroxy-3-methylpyrrolidin-1-yl)pyridin-3-yl)-5′-fluoro-2′-hydroxy-[1,1′-biphenyl]-4-yl)-3-methyl-1H-imidazol-2(3H)-one]			0.01 to 1	0.3 to 30

SMILES	IC50 [1, 3] [nM]	GI50 [2, 4] [nM]	IC50 [1, 5] [nM]	GI50 [2, 6] [nM]
COc1ncc(-c2cc(F)cc(-c3ccc(-n4ccn(C)c4=O)c(Cl)c3)c2O)cc1N1CCCN(C(C)(C)C)CC1 [Example 853, 1-(3′-(5-(4-(tert-Butyl)-1,4-diazepan-1-yl)-6-methoxypyridin-3-yl)-3-chloro-5′-fluoro-2′-hydroxy-[1,1′-biphenyl]-4-yl)-3-methyl-1H-imidazol-2(3H)-one]			0.01 to 1	0.3 to 30
Cc1ccc(-c2cc(F)cc(-c3ccc(-n4ccn(C)c4=O)c(Cl)c3)c2O)cc1N1CC(C)(O)C2(CC2)C1 (centres unmarked) [Example 854, 1-(3-Chloro-5′-fluoro-2′-hydroxy-338-(7-hydroxy-7-methyl-5-azaspiro[2.4]heptan-5-yl)-4″-methyl-[1,1′:3′,1″-terphenyl]-4-yl)-3-methyl-1H-imidazol-2(3H)-one]			1 to 10	30 to 300
Cn1ccn(-c2ccc(-c3cc(F)cc(-c4cccc(-c5ccc(N)cc5)c4)c3O)cc2Cl)c1=O [Example 855]			10 to 100	30 to 300
COCC(C)(C)N1CCN(c2cc(-c3cc(F)cc(-c4ccc(-n5ccn(C)c5=O)c(Cl)c4)c3O)cnc2C)CC1 [Example 856]			1 to 10	0.3 to 30
Cn1ccn(-c2ccc(-c3cc(F)cc(-c4cccc(-c5ccc(O)cc5)c4)c3O)cc2Cl)c1=O [Example 857]			10 to 100	300 to 3000
Cn1ccn(-c2ccc(-c3cc(F)cc(-c4cccc(-c5ccc(CO)cc5)c4)c3O)cc2Cl)c1=O [Example 858]			10 to 100	300 to 3000
COc1c(-c2cccc(N3CCN(C(C)(C)C)CC3)c2)cc(F)cc1-c1ccc(-n2ccn(C)c2=O)c(Cl)c1 [Example 859]			10 to 100	30 to 300
COc1ncc(-c2cc(F)cc(-c3ccc(-n4ccn(C)c4=O)c(Cl)c3)c2OC(C)=O)cc1N1CCN(C(C)C)CC1 [Example 860]			> 100	0.3 to 30
Cn1ccn(-c2ccc(-c3cc(F)cc(-c4ccnc(N5CC(C)(O)C(F)(F)C5)c4)c3O)cc2Cl)c1=O (centres unmarked) [Example 861]			1 to 10	0.3 to 30
Cn1ccn(-c2ccc(-c3cc(F)cc(-c4cccc(-c5cccc(N)c5)c4)c3O)cc2Cl)c1=O [Example 862]			10 to 100	300 to 3000
Cn1ccn(-c2ccc(-c3cc(F)cc(-c4cccc(-c5ccc(CN)cc5)c4)c3O)cc2Cl)c1=O [Example 863]			10 to 100	300 to 3000
Cn1ccn(-c2ccc(-c3cc(F)cc(-c4cccc(-c5cccc(O)c5)c4)c3O)cc2Cl)c1=O [Example 864]			10 to 100	300 to 3000
Cn1ccn(-c2ccc(-c3cc(F)cc(-c4cccc(-c5cccc(CO)c5)c4)c3O)cc2Cl)c1=O [Example 865]			10 to 100	300 to 3000
Cn1ccn(-c2ccc(-c3cc(F)cc(-c4cccc(-c5cccc(CN)c5)c4)c3O)cc2Cl)c1=O [Example 866]			10 to 100	300 to 3000
Cn1ccn(-c2ccc(-c3cc(F)cc(-c4cccc(N5CCN(C6CCOC6)CC5)c4)c3O)cc2Cl)c1=O (centres unmarked) [Example 867]			1 to 10	30 to 300

Reference: patent publication US20250179059A1 (The Regents of the University of California, priority 2021, published 2025)
